Data as given in the supplement of paper PMC11061612.

Assays:
Assay in all cases: Bliss excess, mean over the matrix (fraction); higher = more synergy
A498 (Kidney Carcinoma) = test system: A498 (Kidney Carcinoma)
How it was run: (§1)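 Cell lines in DMEM/F12 or RPMI with 10% FBS were plated in 1536-well plates, held 24 hours at 37°C, 5% CO2, then given two-drug dose matrices for 72 hours (DMSO typically 0.2%). Viability was read by CellTiter-Glo 2.0 luminescence and scaled as inhibition from 0 (vehicle wells) to 1 (blank wells). Combination Emax is the second-highest inhibition in the matrix; Bliss excess is observed combination effect minus expected EA + EB − EA·EB, EA and EB being single-agent effects.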

ARH-77 (Non-Cancerous) = test system: ARH-77 (Non-Cancerous)
How it was run: as §1

[1] = test system: BICR22 (Oral Cavity Carcinoma)
How it was run: as §1

[2] = test system: CAL-29 (Bladder Carcinoma)
How it was run: as §1

[3] = test system: CAPAN-2 (Pancreatic Carcinoma)
How it was run: as §1

CAS-1 (Glioblastoma) = test system: CAS-1 (Glioblastoma)
How it was run: as §1

[4] = test system: CCK-81 (Colorectal Carcinoma)
How it was run: as §1

[5] = test system: COLO-824 (Breast Carcinoma)
How it was run: as §1

[6] = test system: COR-L311 (Small Cell Lung Carcinoma)
How it was run: as §1

GI-ME-N (Neuroblastoma) = test system: GI-ME-N (Neuroblastoma)
How it was run: as §1

Hs-445 (Non-Cancerous) = test system: Hs-445 (Non-Cancerous)
How it was run: as §1

[7] = test system: NCI-H1581 (Non-Small Cell Lung Carcinoma)
How it was run: as §1

[8] = test system: NCI-H1650 (Lung Adenocarcinoma)
How it was run: as §1

[9] = test system: NCI-H1666 (Lung Adenocarcinoma)
How it was run: as §1

[10] = test system: NCI-H2066 (Squamous Cell Lung Carcinoma)
How it was run: as §1

[11] = test system: ONS-76 (Other Solid Carcinomas)
How it was run: as §1

[12] = test system: SISO (Cervical Carcinoma)
How it was run: as §1

[13] = test system: SK-MES-1 (Squamous Cell Lung Carcinoma)
How it was run: as §1

[14] = test system: SK-MG-1 (Low Grade Glioma)
How it was run: as §1

[15] = test system: TT (Thyroid Gland Carcinoma)
How it was run: as §1

Row | Compound | Bliss excess (A498 (Kidney Carcinoma)) | Bliss excess (ARH-77 (Non-Cancerous)) | Bliss excess [1] | Bliss excess [2] | Bliss excess [3] | Bliss excess (CAS-1 (Glioblastoma)) | Bliss excess [4] | Bliss excess [5] | Bliss excess [6] | Bliss excess (GI-ME-N (Neuroblastoma)) | Bliss excess (Hs-445 (Non-Cancerous)) | Bliss excess [7] | Bliss excess [8] | Bliss excess [9] | Bliss excess [10] | Bliss excess [11] | Bliss excess [12] | Bliss excess [13] | Bliss excess [14] | Bliss excess [15]
1 | Cc1cc2ncnn2cc1Nc1ncc2c(n1)n(C1CCOCC1)c(=O)n2C [AZD7648] + CCN(CCO)CCCOc1ccc2c(Nc3cc(CC(=O)Nc4cccc(F)c4)[nH]n3)ncnc2c1 [AZD2811] (first compound max 10 µM, 7x7, partner max 1 µM) | -0.0049 | 0.0348 | 0.0239 | 0.0545 | -0.0525 | 0.0895 | 0.0699 | 0.0116 | -0.0806 | 0.0032 | 0.0394 | 0.0122 | 0.0142 | -0.0087 | -0.0318 | 0.0443 | 0.0662 | -0.0011 | 0.0477 | -0.0266
2 | CC1(C)CCC(CN2CCN(c3ccc(C(=O)NS(=O)(=O)c4ccc(NCC5CCOCC5)c([N+](=O)[O-])c4)c(Oc4cnc5[nH]ccc5c4)c3)CC2)=C(c2ccc(Cl)cc2)C1 [Venetoclax] + CCN(CCO)CCCOc1ccc2c(Nc3cc(CC(=O)Nc4cccc(F)c4)[nH]n3)ncnc2c1 [AZD2811] (first compound max 1 µM, 7x7, partner max 1 µM) | -0.0503 | 0.198 | -0.0138 | 0.0361 | -0.0114 | -0.0052 | -0.0122 | 0.0087 | 0.0261 | -0.0202 | 0.0894 | -0.0024 | 0.0046 | 0.0171 | -0.0442 | -0.0244 | -0.0091 | -0.0139 | -0.0199 | -0.0834
3 | CC(=O)c1c(C)c2cnc(Nc3ccc(N4CCNCC4)cn3)nc2n(C2CCCC2)c1=O [Palbociclib] + CC1(C)CCC(CN2CCN(c3ccc(C(=O)NS(=O)(=O)c4ccc(NCC5CCOCC5)c([N+](=O)[O-])c4)c(Oc4cnc5[nH]ccc5c4)c3)CC2)=C(c2ccc(Cl)cc2)C1 [Venetoclax] (first compound max 10 µM, 7x7, partner max 1 µM) | -0.021 | 0.0762 | -0.0319 | -0.0523 | -0.0473 | -0.009 | -0.0761 | 0.0365 | -0.0186 | -0.0514 | 0.119 | -0.029 | -0.051 | -0.069 | -0.027 | -0.0115 | -0.0384 | -0.0114 | -0.0134 | 0.0138
4 | CN(C)CCCOc1ccc(-c2ccc3ncc4c(c3c2)n(C2CCOCC2)c(=O)n4C)cn1 [AZD0156] + C=CCn1c(=O)c2cnc(Nc3ccc(N4CCN(C)CC4)cc3)nc2n1-c1cccc(C(C)(C)O)n1 [AZD1775] (first compound max 1 µM, partner max 1 µM) | -0.0532 | -0.0207 | -0.0146 | -0.0301 | -0.0709 | -0.0512 | -0.0039 | -0.0024 | -0.115 | -0.0452 | 0.0015 | -0.0641 | -0.0451 | -0.0371 | -0.07 | -0.0487 | -0.0513 | -0.0176 | 0.0174 | -0.0951
5 | COc1nnc2ccc(N3CCC(c4ccc(OCCN5CCN(C)C(=O)[C@H]5C)cc4)CC3)nn12 [AZD5153] + C=CCn1c(=O)c2cnc(Nc3ccc(N4CCN(C)CC4)cc3)nc2n1-c1cccc(C(C)(C)O)n1 [AZD1775] (first compound max 1 µM, partner max 1 µM) | 0.0142 | -0.066 | -0.0972 | -0.0699 | -0.0202 | -0.0825 | -0.0558 | -0.0551 | -0.06 | -0.0231 | -0.192 | -0.0029 | -0.015 | -0.0944 | -0.0503 | -0.0505 | -0.0346 | 0.0183 | -0.0823 | -0.0629
6 | COc1cccc(OCCCN)c1-c1cc(Nc2cnc(C#N)cn2)n[nH]1 [Prexasertib] + CCc1c2c(nc3ccc(O)cc13)-c1cc3c(c(=O)n1C2)COC(=O)[C@]3(O)CC [SN-38] (first compound max 1 µM, 7x7, partner max 0.3 µM) | -0.105 | -0.0304 | -0.0684 | 0.002 | -0.0205 | 0.0383 | -0.0968 | 0.101 | -0.0058 | -0.0326 | -0.0189 | 0.196 | -0.0339 | -0.0269 | 0.0285 | -0.0961 | 0.0277 | -0.0507 | 0.0719 | -0.0758
7 | C=CCn1c(=O)c2cnc(Nc3ccc(N4CCN(C)CC4)cc3)nc2n1-c1cccc(C(C)(C)O)n1 [AZD1775] + O=C(c1cc(Cc2n[nH]c(=O)c3ccccc23)ccc1F)N1CCN(C(=O)C2CC2)CC1 [Olaparib] (first compound max 1 µM, partner max 10 µM) | -0.067 | -0.004 | -0.106 | -0.0722 | -0.0576 | -0.0352 | 0.042 | -0.0423 | -0.0848 | -0.0434 | 0.0156 | -0.0262 | -0.0643 | 0.0278 | -0.0407 | -0.0826 | 0.0151 | -0.0915 | 0.0058 | -0.0543
